Assay results from US20230150929A1, “SELECTIVE NON-CYCLIC NUCLEOTIDE ACTIVATORS FOR THE CAMP SENSOR EPAC1” (The Board of Regents of The University of Texas System, priority 2020, published 2023).
Each block holds one molecule with its values, some of them ahead of it.

Biological target: T1, EPAC1-CNBD (Homo sapiens, UniProt O95398)
T1 sequence (O95398 169-318 isoform O95398-3): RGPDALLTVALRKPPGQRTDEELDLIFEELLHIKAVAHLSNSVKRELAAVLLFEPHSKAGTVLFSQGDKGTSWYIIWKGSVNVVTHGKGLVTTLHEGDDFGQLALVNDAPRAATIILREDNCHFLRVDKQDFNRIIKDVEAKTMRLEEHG
Test: 8-NBD-cAMP competition binding assay, EPAC1-CNBD
Details: for EPAC1 binding potency / affinity in words: SAR comment on RFI, mostly relative to 3 or 9a; for RFI (%) (relative fluorescence intensity), Table 1 / RFI (%) (relative fluorescence intensity), Table 2 / RFI (%) (relative fluorescence intensity), Table 3 / RFI (%) (relative fluorescence intensity), Table 4: compound 10 µM, EPAC1-CNBD 0.8 µM, 8-NBD-cAMP 62.5 nM, mean ± SEM, lower RFI = stronger binding

SMILES: Cc1cc(C)c(S(=O)(=O)NC(=O)COc2cccc3ccccc23)c(C)c1 [Compound 9b, N-(Mesitylsulfonyl)-2-(naphthalen-1-yloxy)acetamide]
EPAC1 binding potency / affinity in words: no significant improvement
RFI (%) (relative fluorescence intensity), Table 1: 94 ± 5%

SMILES: Cc1cc(C)c(S(=O)(=O)NC(=O)COc2ccc3cccnc3c2)c(C)c1 [Compound 9c, N-(Mesitylsulfonyl)-2-(quinolin-7-yloxy)acetamide]
EPAC1 binding potency / affinity in words: no significant improvement
RFI (%) (relative fluorescence intensity), Table 1: 92 ± 2%

SMILES: CC(=O)c1c(OCC(=O)NS(=O)(=O)c2c(C)cc(C)cc2C)ccc2ccccc12 [Compound 9d, 2-((1-Acetylnaphthalen-2-yl)oxy)-N-(mesitylsulfonyl)acetamide]
EPAC1 binding potency / affinity in words: no significant improvement
RFI (%) (relative fluorescence intensity), Table 1: 104 ± 7%

SMILES: Cc1cc(C)c(S(=O)(=O)NC(=O)CSc2nc3ccccc3c(=O)[nH]2)c(C)c1 [Compound 9i, N-(Mesitylsulfonyl)-2-((4-oxo-3,4-dihydroquinazolin-2-yl)thio)acetamide]
RFI (%) (relative fluorescence intensity), Table 1: 95 ± 4%

SMILES: COc1cc2c(cc1OC)CN(CC(=O)NS(=O)(=O)c1c(C)cc(C)cc1C)CC2 [Compound 9k, 2-(6,7-Dimethoxy-3,4-dihydroisoquinolin-2(1H)-yl)-N-(mesitylsulfonyl)acetamide]
RFI (%) (relative fluorescence intensity), Table 1: 102 ± 5%

SMILES: Cc1cc(C)c(S(=O)(=O)NC(=O)CN2CCN(c3ccccn3)CC2)c(C)c1 [Compound 9m, N-(Mesitylsulfonyl)-2-(4-(pyridin-2-yl)piperazin-1-yl)acetamide]
RFI (%) (relative fluorescence intensity), Table 1: 119 ± 8%

SMILES: Cc1ccc(S(=O)(=O)NC(=O)COc2cccc3ccccc23)c(C)c1 [Compound 9q, N-((2,4-dimethylphenyl)sulfonyl)-2-(naphthalen-1-yloxy)acetamide]
RFI (%) (relative fluorescence intensity), Table 2: 71 ± 1%

SMILES: Cc1ccc(S(=O)(=O)NC(=O)COc2ccc3[nH]ccc3c2)c(C)c1 [Compound 9r, 2-((1H-Indol-5-yl)oxy)-N-((2,4-dimethylphenyl)sulfonyl)acetamide]
RFI (%) (relative fluorescence intensity), Table 2: 91 ± 2%

SMILES: Cc1cc(C)c(S(=O)(=O)NC(=O)CSc2ccc3ccccc3c2)c(C)c1 [Compound 12a, N-(Mesitylsulfonyl)-2-(naphthalen-2-ylthio)acetamide]
EPAC1 binding potency / affinity in words: completely inhibit EPAC binding potency
RFI (%) (relative fluorescence intensity), Table 3: 92 ± 2%

SMILES: Cc1cc(C)c(S(=O)(=O)NCCOc2ccc3ccccc3c2)c(C)c1 [Compound 12c, 2,4,6-Trimethyl-N-(2-(naphthalen-2-yloxy)ethyl)benzenesulfonamide]
EPAC1 binding potency / affinity in words: partial or complete loss of binding activity
RFI (%) (relative fluorescence intensity), Table 3: 105 ± 4%

SMILES: Cc1cc(C)c(S(=O)(=O)N2CCC(Oc3ccc4ccccc4c3)CC2)c(C)c1 [Compound 12d, 1-(Mesitylsulfonyl)-4-(naphthalen-2-yloxy)piperidine]
EPAC1 binding potency / affinity in words: partial or complete loss of binding activity
RFI (%) (relative fluorescence intensity), Table 3: 105 ± 3%

SMILES: Cc1cc(C)c(S(=O)(=O)NC(=O)C(F)Oc2ccc3ccccc3c2)c(C)c1 (stereo not drawn) [Compound 12e, 2-Fluoro-N-(mesitylsulfonyl)-2-(naphthalen-2-yloxy)acetamide]
RFI (%) (relative fluorescence intensity), Table 3: 82 ± 4%

SMILES: Cc1ccc(S(=O)(=O)NC(=O)C(C)(C)Oc2ccc3ccccc3c2)c(C)c1 [Compound 12f, N ((2,4-Dimethylphenyl)sulfonyl)-2-methyl-2-(naphthalen-2-yloxy)propenamide]
EPAC1 binding potency / affinity in words: partial or complete loss of binding activity
RFI (%) (relative fluorescence intensity), Table 3: 76 ± 3%

SMILES: Cc1cc(C)cc(S(=O)(=O)NC(=O)COc2ccc3ccccc3c2)c1 [Compound 25a, N-((3,5-Dimethylphenyl)sulfonyl)-2-(naphthalen-2-yloxy)acetamide]
RFI (%) (relative fluorescence intensity), Table 4: 38 ± 2%
fold binding potency increase versus compound 3 (from RFI at 10 µM): about 1.6 fold

SMILES: O=C(COc1ccc2ccccc2c1)NS(=O)(=O)C1CCCCC1 [Compound 25aa, N-(Cyclohexylsulfonyl)-2-(naphthalen-2-yloxy)acetamide]
EPAC1 binding potency / affinity in words: complete loss of affinity
RFI (%) (relative fluorescence intensity), Table 4: 81±3%

Second part, led by results:

RFI (%) (relative fluorescence intensity), Table 1: 49 ± 3%
fold improvement in binding potency compared to 9a (from RFI at 10 µM): about 1.7 fold
SMILES: COc1ccc2ccc(OCC(=O)NS(=O)(=O)c3c(C)cc(C)cc3C)cc2c1 [Compound 9e, N-(Mesitylsulfonyl)-2-((7-methoxynaphthalen-2-yl)oxy)acetamide]

EPAC1 binding potency / affinity in words: slightly decreased binding potency
RFI (%) (relative fluorescence intensity), Table 1: 77 ± 2%
SMILES: Cc1cc(C)c(S(=O)(=O)NC(=O)COc2ccc3c(c2)CCCC3)c(C)c1 [Compound 9f, N-(Mesitylsulfonyl)-2-((5,6,7,8-tetrahydronaphthalen-2-yl)oxy)acetamide]

RFI (%) (relative fluorescence intensity), Table 1: 88 ± 9%
SMILES: Cc1cc(C)c(S(=O)(=O)NC(=O)CNc2cccc(Cl)c2)c(C)c1 [Compound 9h, 2-((3-Chlorophenyl)amino)-N-(mesitylsulfonyl)acetamide]

RFI (%) (relative fluorescence intensity), Table 1: 102 ± 1%
SMILES: Cc1cc(C)c(S(=O)(=O)NC(=O)CN2CCc3ccccc3C2)c(C)c1 [Compound 9j, 2-(3,4-Dihydroisoquinolin-2(1H)-yl)-N-(mesitylsulfonyl)acetamide]

RFI (%) (relative fluorescence intensity), Table 1: 104 ± 2%
SMILES: Cc1cc(C)c(S(=O)(=O)NC(=O)CN2CCn3c(nnc3C(F)(F)F)C2)c(C)c1 [Compound 9l, N-(Mesitylsulfonyl)-2-(3-(trifluoromethyl)-5,6-dihydro-[1,2,4]triazolo[4,3-a]pyrazin-7(8H)-yl)acetamide]

RFI (%) (relative fluorescence intensity), Table 2: 50 ± 2%
SMILES: Cc1ccc(S(=O)(=O)NC(=O)COc2ccc3cc(Cl)ccc3c2)c(C)c1 [Compound 9n, 2-((6-Chloronaphthalen-2-yl)oxy)-N-((2,4-dimethylphenyl)sulfonyl)acetamide]

RFI (%) (relative fluorescence intensity), Table 2: 55 ± 1%
SMILES: Cc1ccc(S(=O)(=O)NC(=O)COc2ccc3cc(F)ccc3c2)c(C)c1 [Compound 9o, 2-((6-Fluoronaphthalen-2-yl)oxy)-N-((2,4-dimethylphenyl)sulfonyl)acetamide]

RFI (%) (relative fluorescence intensity), Table 2: 66 ± 2%
SMILES: Cc1ccc(S(=O)(=O)NC(=O)COc2ccc3ccc(Cl)cc3c2)c(C)c1 [Compound 9p, 2-((7-Chloronaphthalen-2-yl)oxy)-N-((2,4-dimethylphenyl)sulfonyl)acetamide]

RFI (%) (relative fluorescence intensity), Table 2: 94 ± 4%
SMILES: Cc1ccc(S(=O)(=O)NC(=O)COc2ccc3[nH]ncc3c2)c(C)c1 [Compound 9s, 2-((1H-Indazol-5-yl)oxy)-N-((2,4-dimethylphenyl)sulfonyl)acetamide]

RFI (%) (relative fluorescence intensity), Table 3: 97 ± 5%
SMILES: Cc1cc(C)c(S(=O)(=O)NC(=O)CNc2ccc3ccccc3c2)c(C)c1 [Compound 12b, N-(Mesitylsulfonyl)-2-(naphthalen-2-ylamino)acetamide]

RFI (%) (relative fluorescence intensity), Table 3: 81 ± 3%
SMILES: Cc1ccc(S(=O)(=O)NCCOc2ccc3ccccc3c2)c(C)c1 [Compound 12g, 2,4-Dimethyl-N-(2-(naphthalen-2-yloxy)ethyl)benzenesulfonamide]
EPAC1 binding potency / affinity in words: partial or complete loss of binding activity

RFI (%) (relative fluorescence intensity), Table 4: 53 ± 2%
SMILES: O=C(COc1ccc2ccccc2c1)NS(=O)(=O)c1cccc(-c2ccoc2)c1 [Compound 25ab, N-3-(Furan-3-yl)phenylsulfonyl-2-(naphthalene-2-yloxy)acetamide]
